Publication PMC10176470, “Engaging a Non-catalytic Cysteine Residue Drives Potent and Selective Inhibition of Caspase-6” (Journal of the American Chemical Society, 2023)

Experiments:
Format in all cases: cell-based
[1] = molecular target: T1, proteins of HEK293T cells transiently overexpressing caspase-6 (Homo sapiens, UniProt O43175); details: protein PHGDH (O43175)
T1 sequence (O43175 1-533): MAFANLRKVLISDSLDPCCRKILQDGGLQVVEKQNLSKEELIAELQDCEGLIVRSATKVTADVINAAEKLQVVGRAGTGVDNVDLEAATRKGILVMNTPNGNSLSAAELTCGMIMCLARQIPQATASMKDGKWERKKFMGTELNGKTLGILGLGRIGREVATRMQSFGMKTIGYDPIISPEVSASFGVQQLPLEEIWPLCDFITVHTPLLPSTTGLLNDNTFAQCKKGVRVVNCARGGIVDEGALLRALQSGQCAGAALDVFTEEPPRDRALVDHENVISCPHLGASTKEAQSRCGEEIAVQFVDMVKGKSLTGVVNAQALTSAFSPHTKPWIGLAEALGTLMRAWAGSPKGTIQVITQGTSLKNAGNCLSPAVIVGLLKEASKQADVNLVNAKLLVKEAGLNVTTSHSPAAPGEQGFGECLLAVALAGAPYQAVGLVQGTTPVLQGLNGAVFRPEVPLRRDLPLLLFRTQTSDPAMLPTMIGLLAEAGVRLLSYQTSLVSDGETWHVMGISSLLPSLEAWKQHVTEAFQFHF

[2] = molecular target: T2, proteins of HEK293T cells transiently overexpressing caspase-6 (Homo sapiens, UniProt P00390)
T2 sequence (P00390 44-522): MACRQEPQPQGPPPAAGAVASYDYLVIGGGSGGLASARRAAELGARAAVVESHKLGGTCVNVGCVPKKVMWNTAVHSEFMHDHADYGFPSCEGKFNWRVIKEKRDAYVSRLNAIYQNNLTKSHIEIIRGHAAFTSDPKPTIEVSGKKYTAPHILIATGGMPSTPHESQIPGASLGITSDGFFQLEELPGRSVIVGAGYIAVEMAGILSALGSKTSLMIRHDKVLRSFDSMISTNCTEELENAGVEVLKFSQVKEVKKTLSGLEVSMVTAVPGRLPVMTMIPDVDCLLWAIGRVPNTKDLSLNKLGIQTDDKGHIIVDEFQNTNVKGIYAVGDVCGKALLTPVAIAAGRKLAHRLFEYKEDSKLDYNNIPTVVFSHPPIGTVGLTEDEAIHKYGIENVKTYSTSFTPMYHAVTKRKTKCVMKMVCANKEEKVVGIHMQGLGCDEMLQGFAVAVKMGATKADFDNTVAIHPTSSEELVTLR

[3] = molecular target: proteins of HEK293T cells transiently overexpressing caspase-6 (Homo sapiens, UniProt P02786); details: protein TFRC (P02786)
[4] = molecular target: proteins of HEK293T cells transiently overexpressing caspase-6 (Homo sapiens, UniProt P06748); details: protein NPM1 (P06748)
[5] = molecular target: proteins of HEK293T cells transiently overexpressing caspase-6 (Homo sapiens, UniProt P26641); details: exp_ref Probe; protein EEF1G (P26641); analysis C6
[6] = molecular target: proteins of HEK293T cells transiently overexpressing caspase-6 (Homo sapiens, UniProt P31943); details: exp_ref Probe; protein HNRNPH1 (P31943); analysis C6
[7] = molecular target: proteins of HEK293T cells transiently overexpressing caspase-6 (Homo sapiens, UniProt P43487); details: exp_ref Probe; protein RANBP1 (P43487); analysis C6
[8] = molecular target: proteins of HEK293T cells transiently overexpressing caspase-6 (Homo sapiens, UniProt P54886); details: exp_ref Probe; protein ALDH18A1 (P54886); analysis C6
[9] = molecular target: proteins of HEK293T cells transiently overexpressing caspase-6 (Homo sapiens, UniProt P62249); details: exp_ref Probe; protein RPS16 (P62249); analysis C6
[10] = molecular target: proteins of HEK293T cells transiently overexpressing caspase-6 (Homo sapiens, UniProt P62937); details: exp_ref Probe; protein PPIA (P62937); analysis C6
[11] = molecular target: proteins of HEK293T cells transiently overexpressing caspase-6 (Homo sapiens, UniProt P78371); details: exp_ref Probe; protein CCT2 (P78371); analysis C6
[12] = molecular target: proteins of HEK293T cells transiently overexpressing caspase-6 (Homo sapiens, UniProt Q00839); details: protein HNRNPU (Q00839)
[13] = molecular target: T3, proteins of HEK293T cells transiently overexpressing caspase-6 (Homo sapiens, UniProt Q14103); details: protein HNRNPD (Q14103)
T3 sequence (Q14103 1-355): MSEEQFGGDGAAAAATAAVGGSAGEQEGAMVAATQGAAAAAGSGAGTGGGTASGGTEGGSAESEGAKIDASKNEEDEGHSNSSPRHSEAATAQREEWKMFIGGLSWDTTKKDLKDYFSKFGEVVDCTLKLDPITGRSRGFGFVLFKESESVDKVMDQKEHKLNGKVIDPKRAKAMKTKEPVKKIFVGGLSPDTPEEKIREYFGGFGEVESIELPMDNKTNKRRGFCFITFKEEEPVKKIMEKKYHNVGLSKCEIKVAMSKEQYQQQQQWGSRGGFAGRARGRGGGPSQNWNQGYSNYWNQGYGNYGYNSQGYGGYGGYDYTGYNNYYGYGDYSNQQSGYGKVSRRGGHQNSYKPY

[14] = molecular target: proteins of HEK293T cells transiently overexpressing caspase-6 (Homo sapiens, UniProt Q9Y490); details: exp_ref Probe; protein TLN1 (Q9Y490); analysis C6

proteins of HEK293T cells transiently overexpressing caspase-6 (Homo sapiens, UniProt P02786), sequence (P02786 whole entry): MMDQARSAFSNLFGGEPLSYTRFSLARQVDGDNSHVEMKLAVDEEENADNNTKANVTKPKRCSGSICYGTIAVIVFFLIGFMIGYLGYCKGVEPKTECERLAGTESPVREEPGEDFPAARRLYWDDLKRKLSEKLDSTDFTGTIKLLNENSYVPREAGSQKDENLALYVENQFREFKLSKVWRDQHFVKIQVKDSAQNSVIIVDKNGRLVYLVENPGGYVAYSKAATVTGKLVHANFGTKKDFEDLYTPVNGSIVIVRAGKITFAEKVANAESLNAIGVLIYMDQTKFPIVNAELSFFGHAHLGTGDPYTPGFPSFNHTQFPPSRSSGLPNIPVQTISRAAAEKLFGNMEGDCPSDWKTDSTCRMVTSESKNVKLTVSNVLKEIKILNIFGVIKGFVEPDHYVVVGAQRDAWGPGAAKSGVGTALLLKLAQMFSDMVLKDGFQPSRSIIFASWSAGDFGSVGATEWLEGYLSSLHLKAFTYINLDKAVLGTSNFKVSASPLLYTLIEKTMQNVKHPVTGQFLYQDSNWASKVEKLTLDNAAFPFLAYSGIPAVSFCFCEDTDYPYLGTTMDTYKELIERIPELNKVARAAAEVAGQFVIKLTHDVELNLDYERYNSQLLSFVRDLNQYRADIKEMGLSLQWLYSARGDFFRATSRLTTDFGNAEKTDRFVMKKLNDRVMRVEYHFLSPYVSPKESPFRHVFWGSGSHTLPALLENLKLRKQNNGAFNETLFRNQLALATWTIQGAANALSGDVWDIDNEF
proteins of HEK293T cells transiently overexpressing caspase-6 (Homo sapiens, UniProt Q00839), sequence (Q00839 whole entry): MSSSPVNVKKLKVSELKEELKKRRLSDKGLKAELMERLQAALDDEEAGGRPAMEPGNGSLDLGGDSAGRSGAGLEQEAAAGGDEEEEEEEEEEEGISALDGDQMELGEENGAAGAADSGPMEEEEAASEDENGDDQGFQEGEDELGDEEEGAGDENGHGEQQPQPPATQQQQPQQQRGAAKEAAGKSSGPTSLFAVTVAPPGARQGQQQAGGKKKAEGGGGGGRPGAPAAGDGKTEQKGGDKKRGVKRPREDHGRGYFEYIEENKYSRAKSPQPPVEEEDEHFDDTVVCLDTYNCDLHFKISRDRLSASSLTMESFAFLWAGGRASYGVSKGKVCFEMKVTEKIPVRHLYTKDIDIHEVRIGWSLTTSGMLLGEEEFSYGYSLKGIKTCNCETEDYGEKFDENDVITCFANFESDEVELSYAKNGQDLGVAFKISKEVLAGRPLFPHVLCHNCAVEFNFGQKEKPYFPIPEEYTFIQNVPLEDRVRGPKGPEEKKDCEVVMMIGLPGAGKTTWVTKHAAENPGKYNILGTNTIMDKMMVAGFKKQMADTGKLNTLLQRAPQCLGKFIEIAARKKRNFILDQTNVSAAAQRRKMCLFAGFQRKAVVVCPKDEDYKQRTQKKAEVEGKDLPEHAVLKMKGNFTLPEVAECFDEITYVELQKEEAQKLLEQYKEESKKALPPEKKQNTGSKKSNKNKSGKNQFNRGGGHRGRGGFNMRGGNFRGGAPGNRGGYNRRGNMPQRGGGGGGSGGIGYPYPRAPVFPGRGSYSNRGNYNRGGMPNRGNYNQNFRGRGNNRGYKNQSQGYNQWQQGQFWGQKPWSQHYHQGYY
proteins of HEK293T cells transiently overexpressing caspase-6 (Homo sapiens, UniProt P06748), sequence (P06748 whole entry): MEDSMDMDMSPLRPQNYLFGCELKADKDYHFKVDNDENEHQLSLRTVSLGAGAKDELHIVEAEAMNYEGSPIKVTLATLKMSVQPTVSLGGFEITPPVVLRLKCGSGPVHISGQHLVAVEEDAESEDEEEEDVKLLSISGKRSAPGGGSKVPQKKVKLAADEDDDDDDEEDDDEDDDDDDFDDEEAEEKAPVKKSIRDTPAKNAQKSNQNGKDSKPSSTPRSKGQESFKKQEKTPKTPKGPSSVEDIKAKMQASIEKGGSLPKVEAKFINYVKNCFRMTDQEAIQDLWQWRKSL
proteins of HEK293T cells transiently overexpressing caspase-6 (Homo sapiens, UniProt P26641), sequence (P26641 whole entry): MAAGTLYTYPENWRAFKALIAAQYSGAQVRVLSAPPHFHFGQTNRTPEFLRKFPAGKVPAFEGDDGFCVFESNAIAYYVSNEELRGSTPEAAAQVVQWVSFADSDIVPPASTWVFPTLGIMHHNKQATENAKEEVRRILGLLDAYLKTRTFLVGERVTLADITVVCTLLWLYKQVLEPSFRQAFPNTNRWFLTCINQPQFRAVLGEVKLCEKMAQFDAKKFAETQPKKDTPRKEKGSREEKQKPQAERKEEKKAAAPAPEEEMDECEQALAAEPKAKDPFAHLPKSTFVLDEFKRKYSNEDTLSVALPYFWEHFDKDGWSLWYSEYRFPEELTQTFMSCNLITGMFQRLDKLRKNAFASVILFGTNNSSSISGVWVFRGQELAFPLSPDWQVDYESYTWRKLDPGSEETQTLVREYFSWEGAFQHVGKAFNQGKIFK
proteins of HEK293T cells transiently overexpressing caspase-6 (Homo sapiens, UniProt P78371), sequence (P78371 whole entry): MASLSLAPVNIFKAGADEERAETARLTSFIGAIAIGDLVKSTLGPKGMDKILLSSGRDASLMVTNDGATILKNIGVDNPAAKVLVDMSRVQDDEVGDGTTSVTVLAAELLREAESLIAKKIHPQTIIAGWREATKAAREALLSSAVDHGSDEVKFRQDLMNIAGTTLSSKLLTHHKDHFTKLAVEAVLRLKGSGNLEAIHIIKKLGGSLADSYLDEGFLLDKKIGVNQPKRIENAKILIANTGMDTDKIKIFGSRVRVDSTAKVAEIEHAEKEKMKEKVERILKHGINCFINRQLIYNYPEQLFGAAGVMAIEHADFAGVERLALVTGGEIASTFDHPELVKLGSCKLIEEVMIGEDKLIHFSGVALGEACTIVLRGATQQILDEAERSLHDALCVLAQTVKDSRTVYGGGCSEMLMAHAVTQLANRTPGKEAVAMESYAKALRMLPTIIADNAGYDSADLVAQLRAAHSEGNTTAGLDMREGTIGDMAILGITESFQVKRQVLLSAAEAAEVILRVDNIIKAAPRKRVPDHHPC
proteins of HEK293T cells transiently overexpressing caspase-6 (Homo sapiens, UniProt P54886), sequence (P54886 whole entry): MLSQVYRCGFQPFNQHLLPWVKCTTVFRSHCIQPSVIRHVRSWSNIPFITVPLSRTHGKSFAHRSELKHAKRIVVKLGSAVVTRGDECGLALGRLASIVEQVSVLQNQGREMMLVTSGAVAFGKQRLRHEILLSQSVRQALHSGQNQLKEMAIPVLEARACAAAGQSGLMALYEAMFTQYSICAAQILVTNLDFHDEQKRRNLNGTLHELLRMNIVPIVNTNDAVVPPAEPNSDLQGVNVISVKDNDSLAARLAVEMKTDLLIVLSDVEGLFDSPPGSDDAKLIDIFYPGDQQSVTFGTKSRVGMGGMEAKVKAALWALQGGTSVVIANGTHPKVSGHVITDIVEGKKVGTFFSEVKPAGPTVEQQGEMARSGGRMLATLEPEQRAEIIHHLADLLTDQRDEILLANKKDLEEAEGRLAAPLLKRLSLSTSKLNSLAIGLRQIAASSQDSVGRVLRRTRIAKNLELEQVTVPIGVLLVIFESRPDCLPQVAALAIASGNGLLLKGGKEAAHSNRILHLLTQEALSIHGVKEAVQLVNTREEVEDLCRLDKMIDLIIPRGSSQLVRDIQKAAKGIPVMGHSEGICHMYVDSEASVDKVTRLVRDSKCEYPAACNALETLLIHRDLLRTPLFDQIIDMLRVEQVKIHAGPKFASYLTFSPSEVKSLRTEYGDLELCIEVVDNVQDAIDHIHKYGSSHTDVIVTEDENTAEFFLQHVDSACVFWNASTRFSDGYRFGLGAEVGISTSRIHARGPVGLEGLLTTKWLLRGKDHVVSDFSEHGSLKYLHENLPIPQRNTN
proteins of HEK293T cells transiently overexpressing caspase-6 (Homo sapiens, UniProt P43487), sequence (P43487 whole entry): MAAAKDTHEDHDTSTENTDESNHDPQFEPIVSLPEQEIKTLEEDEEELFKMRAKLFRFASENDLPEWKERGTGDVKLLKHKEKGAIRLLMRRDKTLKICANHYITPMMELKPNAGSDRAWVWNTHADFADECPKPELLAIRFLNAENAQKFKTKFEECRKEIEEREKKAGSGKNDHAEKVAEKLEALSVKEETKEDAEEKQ
proteins of HEK293T cells transiently overexpressing caspase-6 (Homo sapiens, UniProt P62937), sequence (P62937 whole entry): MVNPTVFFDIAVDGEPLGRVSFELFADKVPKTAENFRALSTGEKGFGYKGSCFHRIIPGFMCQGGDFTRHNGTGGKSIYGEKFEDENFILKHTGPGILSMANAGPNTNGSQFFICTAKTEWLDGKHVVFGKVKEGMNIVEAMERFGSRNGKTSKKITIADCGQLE
proteins of HEK293T cells transiently overexpressing caspase-6 (Homo sapiens, UniProt P31943), sequence (P31943 whole entry): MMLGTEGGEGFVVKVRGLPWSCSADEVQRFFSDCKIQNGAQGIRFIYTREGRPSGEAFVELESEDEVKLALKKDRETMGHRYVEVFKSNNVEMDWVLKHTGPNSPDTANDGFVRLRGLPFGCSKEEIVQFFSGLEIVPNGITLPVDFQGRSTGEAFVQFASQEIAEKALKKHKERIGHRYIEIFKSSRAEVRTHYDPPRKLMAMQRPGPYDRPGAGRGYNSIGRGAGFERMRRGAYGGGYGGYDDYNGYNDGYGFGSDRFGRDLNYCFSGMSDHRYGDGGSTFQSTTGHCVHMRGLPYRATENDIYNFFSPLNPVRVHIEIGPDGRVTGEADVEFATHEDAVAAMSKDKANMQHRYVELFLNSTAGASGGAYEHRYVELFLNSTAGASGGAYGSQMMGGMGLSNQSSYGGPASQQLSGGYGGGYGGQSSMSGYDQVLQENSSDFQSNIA

C#CCOc1ccc([C@@H]2C[C@@H](C(=O)Nc3ccc(OC(F)(F)F)cc3)CN(S(=O)(=O)C=C)C2)cc1 (relative stereo) [13-t]
enrich.exp.med ([1]; exp_ref Probe, analysis C6): 1.1798 | enrich.exp.med.lin [1]: 2.265 | enrich.exp.med.log2 [1]: 1.1798 | enrich.exp.med ([2]; Probe, protein GSR P00390): -1.323 | enrich.exp.med.lin ([2]; protein GSR (P00390)): 0.3998 | enrich.exp.med.log2 ([2]; protein GSR (P00390)): -1.323 | enrich.exp.med ([3]; exp_ref Probe, analysis C6): 0.8901 | enrich.exp.med.lin [3]: 1.853 | enrich.exp.med.log2 [3]: 0.8901 | enrich.exp.med ([4]; exp_ref Probe, analysis C6): -0.3931 | enrich.exp.med.lin [4]: 0.7615 | enrich.exp.med.log2 [4]: -0.3931 | enrich.exp.med [5]: 0.5675 | enrich.exp.med [6]: -0.1466 | enrich.exp.med [7]: 0.3695 | enrich.exp.med [8]: 0.3406 | enrich.exp.med [9]: -0.2776 | enrich.exp.med [10]: -0.06908 | enrich.exp.med [11]: 0.6812 | enrich.exp.med ([12]; exp_ref Probe, analysis C6): 0.5889 | enrich.exp.med.lin [12]: 1.5041 | enrich.exp.med.log2 [12]: 0.5889 | enrich.exp.med ([13]; exp_ref Probe, analysis C6): -0.3533 | enrich.exp.med.lin [13]: 0.7828 | enrich.exp.med.log2 [13]: -0.3533 | enrich.exp.med [14]: 0.6042
